Assay results from patent US11376249B2 (priority 2017, dated 2022).

Key:
[1] = system: ERK2 phosphorylation at Thr183 and Tyr185; assay: CNS phosphoprotein profile, ERK2; format: in vivo, mice; conditions: 3 mg/kg, nucleus accumbens
Method: (§1) A comprehensive molecular phosphorylation study is also carried out to examine the central nervous system (CNS) profile of the compounds of Example 1 and Example 3. The extent of protein phosphorylation for selected key central nervous system proteins is measured in mice nucleus accumbens.
(§2) Mice were killed 30 minutes to 2 hours post-injection by focused microwave cranial irradiation, which preserves brain phosphoprotein as it exists at the time of death. The nucleus accumbens was then dissected from each mouse brain, sliced and frozen in liquid nitrogen. Samples were further prepared for phosphoprotein analysis via SDS-PAGE electrophoresis followed by phosphoprotein-specific immunoblotting, as described in Zhu H, et al., Brain Res. 2010 Jun. 25; 1342:11-23. Phosphorylation at each site was quantified, normalized to total levels of the protein (non-phosphorylated), and expressed as percent of the level of phosphorylation in vehicle-treated control mice.

[2] = system: tyrosine hydroxylase phosphorylation at Ser40; assay: CNS phosphoprotein profile, TH; format: in vivo, mice; conditions: 3 mg/kg, 30 or 60 minutes, nucleus accumbens
Method: as §1, §2

[3] = system: GluR1 phosphorylation at Ser845; assay: CNS phosphoprotein profile, GluR1; format: in vivo, mice; conditions: 3 mg/kg, nucleus accumbens
Method: as §1, §2

[4] = system: NR2B phosphorylation at Tyr1472; assay: CNS phosphoprotein profile, NR2B; format: in vivo, mice; conditions: 3 mg/kg, 30-60 minutes, nucleus accumbens
Method: as §1, §2

D2 = D2 (Homo sapiens, UniProt P14416); assay: biochemical; conditions: read-out: inhibition D2
5-HT2 receptor = system: 5-HT2 receptor; design: species or system mice; conditions: mouse, in vivo, po
D1 = D1 (Homo sapiens, UniProt P21728); assay: biochemical; conditions: read-out: inhibition D1
[5] = Rat tolerance/dependence study (28 day)
Mu opiate receptor = Mu opiate receptor (Homo sapiens, UniProt P35372); format: binding
[6] = Mouse marble-burying study (OCD model); format: in vivo, mice; conditions: 20 mg/kg intraperitoneal just prior to test
Text: The marble burying test is used to measure repetitive and anxiety-related behavior in rodents. It is based on the observation that rats and mice will bury either harmful or harmless objects in their bedding, and it has been used as an animal model to measure the effect of pharmacological interventions in treatment of repetitive behavior disorders, such as OCD.
MPEP is a selective mGluR5 glutamate receptor antagonist. […] Mice in groups (1) are orally administered the vehicle, and mice in group (4) are given an intraperitoneal injection of MPEP just prior to the start of the test.
The test is conducted in rectangular cages with 4-5 cm of wood chip bedding in a room with the window shades lowered and the door closed to minimize distractions. Fifteen clean marbles are evenly spaced on top of the bedding in three rows of five marbles. One mouse is placed in each cage. The mouse and cage is left undisturbed for 30 minutes. At the end of the test, the mouse is removed and the number of marbles buried to at least ⅔ of their depth is counted.

D2, sequence (P14416 whole entry): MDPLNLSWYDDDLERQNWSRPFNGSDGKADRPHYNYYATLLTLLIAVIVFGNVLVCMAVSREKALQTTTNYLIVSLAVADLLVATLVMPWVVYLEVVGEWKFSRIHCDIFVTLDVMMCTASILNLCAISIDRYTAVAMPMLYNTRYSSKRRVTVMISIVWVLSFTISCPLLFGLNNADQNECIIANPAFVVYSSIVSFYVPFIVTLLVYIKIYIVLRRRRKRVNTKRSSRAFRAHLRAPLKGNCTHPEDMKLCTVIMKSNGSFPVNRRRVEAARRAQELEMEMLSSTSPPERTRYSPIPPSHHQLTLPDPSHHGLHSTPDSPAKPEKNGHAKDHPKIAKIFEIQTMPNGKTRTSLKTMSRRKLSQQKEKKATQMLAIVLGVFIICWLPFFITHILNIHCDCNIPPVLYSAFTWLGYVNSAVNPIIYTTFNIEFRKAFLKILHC
Mu opiate receptor, sequence (P35372 whole entry): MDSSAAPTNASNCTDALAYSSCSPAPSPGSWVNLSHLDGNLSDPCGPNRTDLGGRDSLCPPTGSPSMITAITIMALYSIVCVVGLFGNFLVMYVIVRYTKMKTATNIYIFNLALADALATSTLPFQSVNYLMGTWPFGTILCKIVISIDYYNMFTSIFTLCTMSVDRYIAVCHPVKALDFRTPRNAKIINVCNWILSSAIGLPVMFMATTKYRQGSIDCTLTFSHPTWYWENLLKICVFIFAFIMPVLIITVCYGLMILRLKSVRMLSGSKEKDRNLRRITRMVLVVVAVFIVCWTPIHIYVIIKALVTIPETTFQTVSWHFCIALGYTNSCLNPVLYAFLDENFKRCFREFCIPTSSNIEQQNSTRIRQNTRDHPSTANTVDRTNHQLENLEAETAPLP
D1, sequence (P21728 whole entry): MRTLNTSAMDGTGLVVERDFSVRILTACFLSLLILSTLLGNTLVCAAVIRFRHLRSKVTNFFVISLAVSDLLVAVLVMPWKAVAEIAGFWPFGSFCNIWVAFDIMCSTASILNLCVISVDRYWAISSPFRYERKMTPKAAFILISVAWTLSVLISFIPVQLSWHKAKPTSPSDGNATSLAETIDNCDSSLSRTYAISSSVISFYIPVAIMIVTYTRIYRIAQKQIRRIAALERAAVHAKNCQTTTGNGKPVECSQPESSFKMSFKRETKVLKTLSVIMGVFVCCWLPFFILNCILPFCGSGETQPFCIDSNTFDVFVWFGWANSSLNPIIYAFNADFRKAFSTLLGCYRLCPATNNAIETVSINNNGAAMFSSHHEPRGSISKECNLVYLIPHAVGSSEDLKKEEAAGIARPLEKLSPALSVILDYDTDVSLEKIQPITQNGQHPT

## O=C1CN2c3c(cccc3[C@@H]3CN(CCCC(=O)c4ccc(F)cc4)CC[C@@H]32)N1 [Example 1, 4-((6bR,10aS)-2-oxo-2,3,6b,9,10,10a-hexahydro-1H,7H-pyrido[3′,4′:4,5]pyrrolo[1,2,3-de]quinoxalin-8-yl)-1-(4-fluoro-phenyl)-butan-1-one]
[1]
  ERK2 phosphorylation at Thr183 and Tyr185: slight decrease
[2]
  effect on tyrosine hydroxylase phosphorylation at Ser40: neither the compound of Example 1 nor of Example 3 has a significant effect
[3]
  GluR1 phosphorylation at Ser845: slight increase
[4]
  effect on NR2B phosphorylation at Tyr1472: neither the compound of Example 1 nor of Example 3 has a significant effect
D2
  inhibition at […]: 47%
5-HT2 receptor
  EC50 for reducing DOI-induced head twitches: 0.23 mg/kg

## O=C1CN2c3c(cccc3[C@@H]3CN(CCCC(O)c4ccc(F)cc4)CC[C@@H]32)N1 (stereo partly drawn) [Example 2, 4-((6bR,10aS)-2-oxo-2,3,6b,9,10,10a-hexahydro-1H,7H-pyrido[3′,4′:4,5]pyrrolo[1,2,3-de]quinoxalin-8-yl)-1-(4-fluoro-phenyl)-butan-1-ol]
D1
  inhibition at 0.1 µM: 13%
D2
  inhibition at […]: 11%

## O=C1CN2c3c(cccc3[C@@H]3CN(CCCOc4ccc(F)cc4)CC[C@@H]32)N1 [Example 3, (6bR,10aS)-8-(3-(4-fluorophenoxy)propyl)-6b,7,8,9,10,10a-hexahydro-1H-pyrido[3′,4′:4,5]pyrrolo[1,2,3-de]quinoxalin-2(3H)-one]
5-HT2 receptor
  EC50 for reducing DOI-induced head twitches: 0.44 mg/kg
[5]; 0.3 mg/kg, dosing phase
  predominant behavioral and physical effects: hunched posture, Straub tail and piloerection
[5]; 0.3 and 3 mg/kg s.c., 28 days
  tolerance: does not produce tolerance
[5]; 0.3 and 3 mg/kg s.c., on-dose or withdrawal phase
  effect on body weight, food and water intake or body temperature: no significant effect

## CN1CCN2c3c(cccc31)[C@@H]1CN(CCCC(=O)c3ccc(F)cc3)CC[C@@H]12 [Formula A, reference compound]
Mu opiate receptor
  activity at the Mu opiate receptor: not active

## CN1CCN2c3c(cccc31)[C@@H]1CN(CCCC(O)c3ccc(F)cc3)CC[C@@H]12 (stereo partly shown) [Formula B, reference compound]
5-HT2 receptor
  EC50 for reducing DOI-induced head twitches: 0.31 mg/kg

## Cc1cccc(C#Cc2ccccc2)n1 [MPEP, 2-methyl-6-(phenylethynyl)pyridine]
[6]
  Marbles Buried: 0.2

## CN1CC[C@]23c4c5ccc(O)c4O[C@H]2[C@@H](O)C=C[C@H]3[C@H]1C5 [Morphine, reference compound]
[5]; 30 mg/kg orally twice per day
  tolerance and dependence: clear signs of tolerance and dependence
